Test results published in publication PMC4655838, “Versatility in phospho-dependent molecular recognition of the XRCC1 and XRCC4 DNA-damage scaffolds by aprataxin-family FHA domains” (DNA Repair, 2015).
Read-outs that look alike come from different tables or passages of the source. Square brackets hold non-standard residues; d marks the D form. Peptide text beside a SMILES is read from it. pT = C[C@@H](OP(=O)(O)O)[C@H](N)C(=O)O; pS = N[C@@H](COP(=O)(O)O)C(=O)O

Columns and labels:
Assay type in all cases: binding
[1] = biological target: T1, wild-type APLF FHA domain (Homo sapiens, UniProt Q8IW19); test: ITC of wild-type APLF FHA domain with XRCC1 and XRCC4 phosphopeptides; settings: 22 °C, 50 mM HEPES pH 7.5, 150 mM NaCl, 5 mM β-mercaptoethanol, peptide in syringe, XRCC1 peptides 1 mM into 100 μM protein, XRCC4 peptides 300 μM into 30 μM protein, single-site model, representative of triplicate
T1 construct: APLF residues 1–106; GST (pGEX-6P-1) (N, cleaved yes); made in house; host or cells: Escherichia coli Rosetta2 (DE3)
T1 sequence (Q8IW19 1-106): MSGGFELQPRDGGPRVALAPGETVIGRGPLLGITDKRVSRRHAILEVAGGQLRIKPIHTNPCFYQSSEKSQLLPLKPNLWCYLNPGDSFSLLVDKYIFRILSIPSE
Description: (§1) The genes for aprataxin residues 1–105 and APLF residues 1–106 were amplified using primer sets which incorporated 5′ BamHI and 3′ XhoI sites. PCR products and pGEX-6P-1 vector were digested with BamHI and XhoI and religated. All point mutations were generated using a QuickChange Site-Directed Mutagenesis Kit (Stratagene) following the manufacturer's recommended protocol.
For expression, the pGEX-6P-1/aprataxin-FHA constructs were transformed into Escherichia coli strain BL21 (DE3) and the pGEX-6P-1/APLF-FHA constructs transformed into the strain Rosetta2 (DE3). Cells were grown in LB at 37 °C to an A600 of 0.5, induced with 0.4 mM isopropyl 1-thio-β-D-galactopyranoside and incubated at 18 °C for a further 16 h before harvesting. […]
Phosphopeptides based on the XRCC1 sequence 515-YAGSTDENTDSEEHQ-529 and the XRCC4 sequence 229-YDESTDEES-237 were synthesised with amidated C-termini to avoid potential end-effects of a free carboxy-terminus by Dr. W. Mawby (University of Bristol), purified by HPLC and characterised by mass spectrometry. FHA-phosphopeptide binding was quantified by isothermal titration calorimetry using a Microcal Omega VP-ITC calorimeter (MicroCal Inc., Northampton, MA). […] Heats of dilution were subtracted and binding isotherms were plotted and analysed with MicroCal origin version 7.0, assuming a single-site binding model.

[2] = biological target: T2, wild-type aprataxin FHA domain (Homo sapiens, UniProt Q7Z2E3); test: ITC of wild-type aprataxin FHA domain with XRCC1 and XRCC4 phosphopeptides; settings: 22 °C, 50 mM HEPES pH 7.5, 150 mM NaCl, 5 mM β-mercaptoethanol, peptide in syringe, XRCC1 peptides 1 mM into 100 μM protein, XRCC4 peptides 300 μM into 30 μM protein, single-site model, representative of triplicate
T2 construct: aprataxin residues 1–105; GST (pGEX-6P-1) (N, cleaved yes); made in house; host or cells: Escherichia coli BL21 (DE3)
T2 sequence (Q7Z2E3 15-119): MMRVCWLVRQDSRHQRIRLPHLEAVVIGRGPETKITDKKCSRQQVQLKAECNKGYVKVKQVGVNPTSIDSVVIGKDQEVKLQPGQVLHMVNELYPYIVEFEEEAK
Description: as §1
(§2) For expression, the pGEX-6P-1/aprataxin-FHA constructs were transformed into Escherichia coli strain BL21 (DE3) and the pGEX-6P-1/APLF-FHA constructs transformed into the strain Rosetta2 (DE3). Cells were grown in LB at 37 °C to an A600 of 0.5, induced with 0.4 mM isopropyl 1-thio-β-D-galactopyranoside and incubated at 18 °C for a further 16 h before harvesting. Cells were lysed by sonication and clarified by centrifugation (20,000 × g × 30 min). The supernatant was applied to a glutathione-4B resin (Amersham) and cleaved from the resin with rhinovirus 3C protease. Proteins were purified further by gel-filtration chromatography on a Superdex 75 matrix in 20 mM Tris pH 7.5, 150 mM NaCl, 5 mM DTT. Selenomethionine-labelled APLF L91 M protein was expressed in Rosetta2 (DE3) cells cultured in SelenoMet base media and nutrients supplemented with seleno-methionine solution (Molecular Dimensions Ltd.) and purified as the wild-type protein.
(§3) Phosphopeptides based on the XRCC1 sequence 515-YAGSTDENTDSEEHQ-529 and the XRCC4 sequence 229-YDESTDEES-237 were synthesised with amidated C-termini to avoid potential end-effects of a free carboxy-terminus by Dr. W. Mawby (University of Bristol), purified by HPLC and characterised by mass spectrometry. FHA-phosphopeptide binding was quantified by isothermal titration calorimetry using a Microcal Omega VP-ITC calorimeter (MicroCal Inc., Northampton, MA). Protein was dialysed against ITC buffer (50 mM HEPES pH 7.5, 150 mM NaCl, 5 mM β-mercaptoethanol) and peptides were dissolved in the dialysis buffer. Experiments were carried out at 22 °C and involved 30 successive 10 μl injections of peptide solution into a sample cell containing protein solution. Titrations with XRCC1 peptides used peptide at 1 mM and protein at 100 μM and titrations with XRCC4 peptides used peptide at 300 μm and protein at 30 μM. Heats of dilution were subtracted and binding isotherms were plotted and analysed with MicroCal origin version 7.0, assuming a single-site binding model.

aprataxin FHA domain = biological target: T3, aprataxin FHA domain (Homo sapiens, UniProt Q7Z2E3); test: NMR (1H-SOFAST-HMQC) titrations of aprataxin FHA domain with XRCC1 phosphopeptides; settings: NMR titration, 22 °C
T3 construct: aprataxin residues 1–105; GST (pGEX-6P-1) (N, cleaved yes); made in house; host or cells: Escherichia coli BL21 (DE3)
T3 sequence (Q7Z2E3 15-119): as above
Protocol: NMR experiments were carried out at 22 °C on Bruker Avance II+ 600 MHz and Avance III 700 MHz spectrometers, each equipped with a cryogenic triple-resonance probe. Protein and peptides were prepared in NMR buffer (20 mM Na Acetate pH 5.8, 50 mM NaCl, 2 mM DTT). Three-dimensional HNCA, HNCO, HNCACB and CBCA(CO)NH experiments were performed to obtain backbone assignments. NMR titration experiments were carried out by adding the unlabelled XRCC1 peptides to ^15N-labeled aprataxin FHA domain. The initial protein concentration was 92 μM and volumes of 2 mM stock solution of peptide were added until the protein:peptide ratio was 1:4. ^1H-SOFAST-HMQC [36] spectra were measured after each titration step. All spectra were processed using nmrPipe, and analysed using CARA/NEASY [38]. The weighted chemical shift change (in ppm units) of each amide proton (ΔδHN) and nitrogen (ΔδN) was calculated according to the equation: Δδtotal = [(ΔδHNWHN)^2 + (ΔδNWN)^2]^1/2 with WHN = 1 and WN = 0.154 [39]. Weighted chemical shifts for residues D37, V45, Q46, V61 and V63 were plotted against peptide concentration to determine individual Kds and averaged to determine the apparent Kd.

[3] = biological target: T4, K38A Mutant of aprataxin FHA domain (Homo sapiens, UniProt Q7Z2E3, K52A); test: ITC of K38A mutant of aprataxin FHA domain with XRCC1 and XRCC4 phosphopeptides; settings: 22 °C, 50 mM HEPES pH 7.5, 150 mM NaCl, 5 mM β-mercaptoethanol, single-site model
T4 construct: aprataxin residues 1–105; GST (pGEX-6P-1) (N, cleaved yes); made in house; host or cells: Escherichia coli BL21 (DE3)
T4 sequence (Q7Z2E3 15-119 K52A): as the sequence (Q7Z2E3 15-119) above, with K38A counted along it
Description: as §1, §2, §3

[4] = biological target: T5, R42A Mutant of aprataxin FHA domain (Homo sapiens, UniProt Q7Z2E3, R56A); test: ITC of R42A mutant of aprataxin FHA domain with XRCC1 and XRCC4 phosphopeptides; settings: 22 °C, 50 mM HEPES pH 7.5, 150 mM NaCl, 5 mM β-mercaptoethanol, single-site model
T5 construct: aprataxin residues 1–105; GST (pGEX-6P-1) (N, cleaved yes); made in house; host or cells: Escherichia coli BL21 (DE3)
T5 sequence (Q7Z2E3 15-119 R56A): as the sequence (Q7Z2E3 15-119) above, with R42A counted along it
Description: as §1, §2, §3

[5] = 20 mM Na Acetate pH 5.8, 50 mM NaCl, 2 mM DTT, 92 µM 15N aprataxin FHA, 2 mM peptide stock, read-out: Kd from weighted chemical shift of residue Asp37
[6] = pH 5.8, 92 µM aprataxin FHA, read-out: Kd from weighted chemical shift of residue Gln46
[7] = pH 5.8, 92 µM aprataxin FHA, read-out: Kd from weighted chemical shift of residue Val45
[8] = pH 5.8, 92 µM aprataxin FHA, read-out: Kd from weighted chemical shift of residue Val61
[9] = pH 5.8, 92 µM aprataxin FHA, read-out: Kd from weighted chemical shift of residue Val63

SMILES | Kd [1] [µM] | Kd [2] [µM] | Kd (aprataxin FHA domain; [5]) [µM] | Kd (aprataxin FHA domain; [6]) [µM] | Kd (aprataxin FHA domain; [7]) [µM] | Kd (aprataxin FHA domain; [8]) [µM] | Kd (aprataxin FHA domain; [9]) [µM] | Kd (aprataxin FHA domain; pH 5.8, tighter binders not well defined due to high protein concentration, read-out: overall apparent affinity (Kdapp) estimated from NMR titrations) [µM] | Kd [3] [µM] | Kd [4] [µM]
C[C@H](NC(=O)[C@@H](N)Cc1ccc(O)cc1)C(=O)NCC(=O)N[C@@H](COP(=O)(O)O)C(=O)N[C@H](C(=O)N[C@@H](CC(=O)O)C(=O)N[C@@H](CCC(=O)O)C(=O)N[C@@H](CC(N)=O)C(=O)N[C@H](C(=O)N[C@@H](CC(=O)O)C(=O)N[C@@H](COP(=O)(O)O)C(=O)N[C@@H](CCC(=O)O)C(=O)N[C@@H](CCC(=O)O)C(=O)N[C@@H](Cc1c[nH]cn1)C(=O)N[C@@H](CCC(N)=O)C(N)=O)[C@@H](C)OP(=O)(O)O)[C@@H](C)OP(=O)(O)O [YAGpSpTDENpTDpSEEHQ] (H-YAG[pS][pT]DEN[pT]D[pS]EEHQ-NH2) | 11 ± 0.3 | 0.87 ± 0.05 |  |  |  |  |  |  |  | 
C[C@H](NC(=O)[C@@H](N)Cc1ccc(O)cc1)C(=O)NCC(=O)N[C@@H](CO)C(=O)N[C@H](C(=O)N[C@@H](CC(=O)O)C(=O)N[C@@H](CCC(=O)O)C(=O)N[C@@H](CC(N)=O)C(=O)N[C@H](C(=O)N[C@@H](CC(=O)O)C(=O)N[C@@H](CO)C(=O)N[C@@H](CCC(=O)O)C(=O)N[C@@H](CCC(=O)O)C(=O)N[C@@H](Cc1c[nH]cn1)C(=O)N[C@@H](CCC(N)=O)C(N)=O)[C@@H](C)OP(=O)(O)O)[C@@H](C)O [YAGSTDENpTDSEEHQ] (HELM PEPTIDE1{Y.A.G.S.T.D.E.N.[C[C@@H](OP(=O)(O)O)[C@H](N[*:1])C(=O)[*:2]].D.S.E.E.H.Q.[am]}$$$$V2.0) |  | 42 ± 3.8 | 7.6 | 5.9 | 9.8 | 4 | 7.9 | 7 |  | 
C[C@H](NC(=O)[C@@H](N)Cc1ccc(O)cc1)C(=O)NCC(=O)N[C@@H](CO)C(=O)N[C@H](C(=O)N[C@@H](CC(=O)O)C(=O)N[C@@H](CCC(=O)O)C(=O)N[C@@H](CC(N)=O)C(=O)N[C@H](C(=O)N[C@@H](CC(=O)O)C(=O)N[C@@H](CO)C(=O)N[C@@H](CCC(=O)O)C(=O)N[C@@H](CCC(=O)O)C(=O)N[C@@H](Cc1c[nH]cn1)C(=O)N[C@@H](CCC(N)=O)C(N)=O)[C@@H](C)O)[C@@H](C)OP(=O)(O)O [YAGSpTDENTDSEEHQ] (HELM PEPTIDE1{Y.A.G.S.[C[C@@H](OP(=O)(O)O)[C@H](N[*:1])C(=O)[*:2]].D.E.N.T.D.S.E.E.H.Q.[am]}$$$$V2.0) |  | 17 ± 0.4 | 9.6 | 5.3 | 8.1 | 4.2 | 6.8 |  | 46 ± 2 | ≥ 100
C[C@@H](OP(=O)(O)O)[C@H](NC(=O)[C@H](CO)NC(=O)[C@H](CCC(=O)O)NC(=O)[C@H](CC(=O)O)NC(=O)[C@@H](N)Cc1ccc(O)cc1)C(=O)N[C@@H](CC(=O)O)C(=O)N[C@@H](CCC(=O)O)C(=O)N[C@@H](CCC(=O)O)C(=O)N[C@@H](CO)C(N)=O [YDESpTDEES] (HELM PEPTIDE1{Y.D.E.S.[C[C@@H](OP(=O)(O)O)[C@H](N[*:1])C(=O)[*:2]].D.E.E.S.[am]}$$$$V2.0) |  | 2.1 ± 0.08 |  |  |  |  |  |  | 6.8 ± 0.5 | ≥ 100
